Data on four molecules can be found in ChEMBL document CHEMBL2429795, “New route for synthesis, spectroscopy, and X-ray studies of 2-[aryl-(6-hydroxy-4,4-dimethyl-2-oxocyclohex-6-enyl)methyl]-3-hydroxy-5,5-dimethylcyclohex-2-enone and 1,8-dioxo-octahydroxanthenes and antitumor evaluation” (Med Chem Res, 2013).

In series [1] the test system is NCI-H460. Description: Cytotoxicity against human NCI-H460 cells assessed as growth inhibition after 48 hrs by sulforhodamine B assay. It is filed as functional, cell-based. Conditions: for IC50: NCI-H460, 48 h.
For series [2], the system named is MCF7. Description: Cytotoxicity against human MCF7 cells assessed as growth inhibition after 48 hrs by sulforhodamine B assay. It is filed as functional, cell-based. Conditions: for IC50: MCF7, 48 h.
For series [3], the system named is SF-268. Description: Cytotoxicity against human SF268 cells assessed as growth inhibition after 48 hrs by sulforhodamine B assay. Conditions: for IC50: SF-268, 48 h. It counts as functional, cell-based.
For series [4], the system named is WI-38. The series can be described thus: Cytotoxicity against human WI38 cells assessed as decrease in cell viability up to 25 uM after 4 to 20 hrs by trypan blue exclusion assay. It is filed as cell-based.
The subject of series [5] is PrEC. The series can be described thus: Cytotoxicity against human PrEC assessed as decrease in cell viability up to 25 uM after 24 hrs by trypan blue exclusion assay. It counts as cell-based.
The nature of series [6]: Cytotoxicity against human NCM460 cells assessed as growth inhibition after 48 hrs by trypan blue exclusion assay. It counts as cell-based. Conditions: for IC50: Homo sapiens, NCM460, 48 h; for growth inhibition (GI): human, ncm460, 48 h.
Series [7] in a line: Cytotoxicity against human NCM460 cells assessed as decrease in cell viability up to 25 uM after 4 to 20 hrs by trypan blue exclusion assay. It counts as cell-based.
Series [8] relates to PrEC. Description: Cytotoxicity against human PrEC assessed as growth inhibition after 48 hrs by trypan blue exclusion assay. It is filed as cell-based. Conditions: for IC50: Homo sapiens, PrEC; for growth inhibition (GI): human, prec.
The test system of series [9] is WI-38. Description: Cytotoxicity against human WI38 cells assessed as growth inhibition after 48 hrs by trypan blue exclusion assay. It counts as cell-based. Conditions: for IC50: Homo sapiens, WI-38, 48 h; for growth inhibition (GI): human, wi-38, 48 h.

SMILES strings stand for the structures.

As for `COc1cccc2c1C(=O)c1c(O)c3c(c(O)c1C2=O)C[C@@](O)(C(=O)CO)C[C@@H]3O[C@H]1C[C@H](N)[C@H](O)[C@H](C)O1` [DOXORUBICIN], the half-inhibitory concentration (IC50) came to 90 nM in [1], 40 nM in [2] and 90 nM in series [3].

Take `CC1(C)CC(=O)C2=C(C1)OC1=C(C(=O)CC(C)(C)C1)C2c1ccccc1`: the “growth inhibition (GI)” value in series [1], in series [2], in series [6], in series [3], in series [8] and in series [9] was “Dose-dependent effect” each time. The IC50 came out at 20100 nM in series [1]; 30400 nM in series [2]; 90 nM in [6]; 36300 nM in [3]; 450 nM in series [8]; 470 nM in series [9]. The Activity entry in [4], in series [5] and in series [7] was “Non-toxic” each time.

In the case of `CC1(C)CC(=O)C(C(C2=C(O)CC(C)(C)CC2=O)c2ccccc2)=C(O)C1`, the “growth inhibition (GI)” value in series [1], in series [2], in series [6], in [3], in series [8] and in series [9] was “Dose-dependent effect” throughout. The IC50 in series [1] was 10 nM; in series [2] it was 20 nM; in series [6], 2430 nM; in [3] it was 20 nM; in series [8], 1290 nM; in [9], 2180 nM. For the same molecule, the Activity result in [4], in series [5] and in series [7] was “Non-toxic” each time.

With `CC1(C)CC(=O)C(C(C2=C(O)CC(C)(C)CC2=O)c2ccco2)=C(O)C1`, the “growth inhibition (GI)” value in series [1], in series [2], in series [6], in series [3], in [8] and in series [9] was “Dose-dependent effect” each time. The IC50 in series [1] was determined as 30 nM; in [2], 30 nM; in series [6], 60 nM; in series [3], 30 nM; in [8] it was 330 nM; in series [9], 80 nM. In addition, the Activity entry in [4], in [5] and in [7] was “Non-toxic” throughout.
